# Measured values taken from patent US11241501B2, “Anticancer prodrug for overcoming drug resistance” (Korea University Research and Business Foundation, priority 2018, dated 2022).
# Assays:
# [1] = tested on: carboxylesterase; test: Carboxylesterase activation, fluorescence response and Dox release; assay type: biochemical
# Method: The change in fluorescence intensity is directly related to active Dox release from C1.
# FIG. 8 is a bar diagram representing the fluorescence intensity of C1 (5 μM) recorded at 570 nm after 4 h incubation in the presence or absence of carboxylesterase (1 U/ml), and various biological analytes, including amino acids (100 μM), thiols (10 mM, each), and reactive oxygen species (ROS) (200 μM, each) (Excitation at 470 nm). 1) C1 only, 2) L-proline, 3) L-ascorbic acid, 4) L-glutamic acid, 5) nicotinamide adenine dinucleotide (NADH), 6) pepsin, 7) acetylcholinesterase (AChE), 8) butyrylcholinesterase (BChE), 9) L-glutathione, 10) H2O2, 11) hypochlorite ion (OCl^−) 12) C1+esterase;
# The maximal fluorescence intensity was recorded after 4 h. […] Note: The change in fluorescence intensity is considered to be proportional to the quantity of active Dox release from […]. […]
# To gain further insight into the preliminary stability and activation of conjugates containing DCA, Dox, and a TPP cation targeting entity, both the target conjugate C1 and the control system C3 (an analog of C1 lacking the chloromethyl groups present in DCA; cf. FIG. 1) were prepared. […] Further support for the release of free Dox under these conditions came from time-dependent fluorescence experiments, HPLC, and liquid chromatography-mass spectrometry (FIG. 2B and FIG. 2C, and FIG. 7). […]
# [2] = tested on: MCF7/Dox xenograft tumors; test: Independent comparative xenograft study of C1-C4; assay type: in vivo, mice; details: n=5 per group, FIG. 23C
# Text: Tumors are shown (right). […] C1 injection led to a 58% reduction in tumor growth, which was statistically greater than the reductions seen in the case of C2 (16%), C3 (9%), C4 (6%) and DMSO (0%) tested under otherwise identical conditions.
structure (smiles),measurement,setting,value
COc1cccc2c1C(=O)c1c(O)c3c(c(O)c1C2=O)C[C@@](O)(C(=O)CO)C[C@@H]3OC1C[C@H](NC(=O)OC(Cc2cn(CCCCCC[P+](c3ccccc3)(c3ccccc3)c3ccccc3)nn2)c2ccc(NC(=O)C(Cl)Cl)cc2)[C@H](O)[C@H](C)O1.[Br-] (stereo partly drawn) [C1],"fluorescence response to various amino acids, enzymes and biomolecules versus esterase","[1]; 590 nm emission, 4 h incubation",large fluorescence enhancements in the 590 nm emission feature were observed upon treatment with the esterase but not in its absence
same,"response to carboxylesterase (bond scission, Dox release)","[1]; carboxylesterase 1 U/mL, PBS, 37° C.",scission of the aniline-amide bond and release of Dox
same,reduction in tumor growth,[2],58%
